In patent publication US11149036B2, “3-(1H-pyrazol-4-yl)pyridine allosteric modulators of the M4 muscarinic acetylcholine receptor” (Merck Sharp & Dohme Corp., priority 2017, dated 2021):

Each molecule was assayed against T1, human M4 muscarinic acetylcholine receptor (Homo sapiens, UniProt P08173) (assay: human FLIPR-based M4 PAM assay (CHO-K1 cells with human M4 receptor and Gaqi5, calcium dye fluorescence)). Details: inflection point (IP) of dose response curve, acetylcholine added at 20% of maximum response, read-out: M4 FLIPPR Hu IP.
T1 construct: expressed in transfected cells; host or cells: CHO-K1
T1 sequence (P08173 1-479): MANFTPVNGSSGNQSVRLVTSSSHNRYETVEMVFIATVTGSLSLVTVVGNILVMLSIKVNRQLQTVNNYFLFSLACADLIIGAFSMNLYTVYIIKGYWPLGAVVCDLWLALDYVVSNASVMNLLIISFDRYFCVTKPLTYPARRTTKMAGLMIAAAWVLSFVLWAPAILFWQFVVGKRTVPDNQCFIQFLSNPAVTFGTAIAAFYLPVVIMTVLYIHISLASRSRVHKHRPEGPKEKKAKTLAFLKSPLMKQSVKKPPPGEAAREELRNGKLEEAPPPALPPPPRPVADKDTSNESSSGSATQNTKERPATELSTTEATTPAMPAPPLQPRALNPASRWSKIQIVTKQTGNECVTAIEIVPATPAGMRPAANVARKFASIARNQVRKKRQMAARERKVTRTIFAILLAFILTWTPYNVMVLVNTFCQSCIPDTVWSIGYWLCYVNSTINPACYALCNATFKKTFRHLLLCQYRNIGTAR
Assay type: cell-based
Method: (§1) In a typical experiment the M4 muscarinic acetylcholine receptor modulating activity of the compounds of the present invention was determined in accordance with the following experimental method. CHO-K1 cells stably transfected with human M4 receptor and chimeric G-protein Gaqi5 (Coward P, et al., Analytical Biochemistry, 270:242-248 (1999)) are thawed from liquid N2 storage, resuspended in growth medium, plated in black, clear bottom 384 well plates, and incubated 16-20 hours at 37° C., 5% CO2. On the day of assay, growth medium is removed, the cells are washed 2 times with wash buffer, and cells are incubated in dye loading buffer at 37° C., 5% CO2 for ˜1 hour. Following dye loading the cell plates are placed in a FLIPR Tetra instrument and while monitoring dye fluorescence (excitation 470-495 […]), 10 uL of test substance at increasing concentrations is added, and fluorescence values are recorded for 4 min. Next, 10 uL of acetylcholine is added (final concentration calculated so as to achieve 20% of the maximum acetycholine response), and the fluorescence reading is continued for 3.5 min. In some cases, a third addition of acetylcholine (final concentration calculated to achieve 70% of the maximal acetylcholine response) is performed. The resulting dose response curves are fit to a 4 parameter logistic equation and the final result is determined as the inflection point (IP) of the curve
as §1, with “CHO-K1” for “In a typical experiment the M4 muscarinic acetylcholine receptor modulating activity of the compounds of the present invention was determined in accordance with the following experimental method. CHO-K1”, “Gaqi5” for “Gaqi5 (Coward P, et al., Analytical Biochemistry, 270:242-248 (1999))”, “performed.” for “performed. The resulting dose response curves are fit to a 4 parameter logistic equation and the final result is determined as the inflection point (IP) of the curve”

EC50 [nM] | SMILES
64 | Cc1ccc(-c2cnn(CC3C[C@@H](F)[C@@H](F)C3)c2)c(-c2ccc3cccnc3c2)n1 (mixture of isomers) [Example 27, 7-(3-(1-(((3R,4S and 3S,4R)-3,4-difluorocyclopentyl)methyl)-1H-pyrazol-4-yl)-6-methylpyridin-2-yl)quinoline (+/−)]
39 | Cc1ccc(-c2cnn(CC3C[C@H](F)[C@@H](F)C3)c2)c(-c2ccc3cccnc3c2)n1 (racemic) [Example 29, 7-(3-(1-(((3S,4S and 3R,4R)-3,4-difluorocyclopentyl)methyl)-1H-pyrazol-4-yl)-6-methylpyridin-2-yl)quinoline]
32 | Cc1ccc(-c2cnn(C[C@H]3CC[C@H](F)C3)c2)c(-c2ccc3cccnc3c2)n1 (racemic) [Example 30, 7-(3-(1-(((1S,3S and 1R,3R)-3-fluorocyclopentyl)methyl)-1H-pyrazol-4-yl)-6-methylpyridin-2-yl)quinoline]
29 | Cc1ccc(-c2cnn(C[C@@H]3CC[C@H](F)C3)c2)c(-c2ccc3cccnc3c2)n1 (racemic) [Example 31, 7-(3-(1-(((1R,3S and 1S,3R)-3-fluorocyclopentyl)methyl)-1H-pyrazol-4-yl)-6-methylpyridin-2-yl)quinoline]
22 | Cc1ccc(-c2cnn(CC3CCC(F)(F)C3)c2)c(-c2ccc3cccnc3c2)n1 (single isomer, unassigned) [Example 129, (S or R)-7-(3-(1-((3,3-difluorocyclopentyl)methyl)-1H-pyrazol-4-yl)-6-methylpyridin-2-yl)quinoline]
25 | Cc1ccc(-c2cnn(CC3CCC(F)(F)C3)c2)c(-c2ccc3cccnc3c2)n1 (single isomer, unassigned) [Example 130, (R or S)-7-(3-(1-((3,3-difluorocyclopentyl)methyl)-1H-pyrazol-4-yl)-6-methylpyridin-2-yl)quinoline]
31 | Cc1ccc(-c2cnn(C[C@H]3CC[C@H](F)C3)c2)c(-c2ccc3cccnc3c2)n1 (single isomer, unassigned) [Example 131, 7-(3-(1-(((1S,3S) or (1R,3R)-3-fluorocyclopentyl)methyl)-1H-pyrazol-4-yl)-6-methylpyridin-2-yl)quinoline]
17 | Cc1ccc(-c2cnn(C[C@@H]3CC[C@@H](F)C3)c2)c(-c2ccc3cccnc3c2)n1 (single isomer, unassigned) [Example 132, 7-(3-(1-(((1R,3R) or (1S,3S)-3-fluorocyclopentyl)methyl)-1H-pyrazol-4-yl)-6-methylpyridin-2-yl)quinoline]
17 | Cc1ccc(-c2cnn(C[C@@H]3CC[C@H](F)C3)c2)c(-c2ccc3cccnc3c2)n1 (single isomer, unassigned) [Example 133, 7-(3-(1-(((1R,3S) or (1S,3R)-3-fluorocyclopentyl)methyl)-1H-pyrazol-4-yl)-6-methylpyridin-2-yl)quinoline]
26 | Cc1ccc(-c2cnn(C[C@H]3CC[C@@H](F)C3)c2)c(-c2ccc3cccnc3c2)n1 (single isomer, unassigned) [Example 134, 7-(3-(1-(((1S,3R) or (1R,3S)-3-fluorocyclopentyl)methyl)-1H-pyrazol-4-yl)-6-methylpyridin-2-yl)quinoline]
67 | COc1cc2ccc(-c3nc(C)ccc3-c3cnn(CC4(C)CCC(=O)C4)c3)cc2nn1 (single isomer, unassigned) [Example 148, (S or R)-3-((4-(2-(3-methoxycinnolin-7-yl)-6-methylpyridin-3-yl)-1H-pyrazol-1-yl)methyl)-3-methylcyclopentan-1-one]
22 | COc1cc2ccc(-c3nc(C)ccc3-c3cnn(CC4(C)CCC(F)(F)C4)c3)cc2nn1 (single isomer, unassigned) [Example 150, (R or S)-7-(3-(1-((3,3-difluoro-1-methylcyclopentyl)methyl)-1H-pyrazol-4-yl)-6-methylpyridin-2-yl)-3-methoxycinnoline]
50 | N#Cc1ccc(-c2cnn(CC3CCC(F)C3)c2)c(-c2ccc3cccnc3c2)n1 (single isomer, unassigned) [compound 146, 5-(1-(((1R,3S) or (1S,3R)-3-fluoro-cyclopentyl)methyl)-1H-pyrazol-4-yl)-6-(quinolin-7-yl)picolinonitrile]
200 | COc1cc2ccc(-c3nc(C)ccc3-c3cnn(CC4(C)CCC(=O)C4)c3)cc2nn1 (single isomer, unassigned; isomer a) [Example 149, 3-((4-(2-(3-methoxycinnolin-7-yl)-6-methylpyridin-3-yl)-1H-pyrazol-1-yl)methyl)-3-methylcyclopentan-1-one isomer A]
30 | COc1cc2ccc(-c3nc(C)ccc3-c3cnn(CC4(C)CCC(F)(F)C4)c3)cc2nn1 (single isomer, unassigned; isomer b) [Example 151, (S or R)-7-(3-(1-((3,3-difluoro-1-methylcyclo-pentyl)methyl)-1H-pyrazol-4-yl)-6-methylpyridin-2-yl)-3-methoxycinnoline isomer B]
17 | Cc1ccc(-c2cnn(CC3(F)CCCC3)c2)c(-c2ccc3c(c2)C(=O)N(C)C3)n1 [Example 1, 6-(3-(1-((1-fluorocyclopentyl)methyl)-1H-pyrazol-4-yl)-6-methylpyridin-2-yl)-2-methylisoindolin-1-one]
12 | Cc1cn2ccc(-c3nc(C#N)ccc3-c3cnn(CC4(F)CCCC4)c3)cc2n1 [Example 3, 5-(1-((1-fluorocyclopentyl)methyl)-1H-pyrazol-4-yl)-6-(2-methylimidazo[1,2-a]pyridin-7-yl)picolinonitrile]
63 | Cc1cn2ccc(-c3ncccc3-c3cnn(CC4C[C@H](F)[C@@H](F)C4)c3)cc2n1 [Example 4, 7-(3-(1-(((3S,4S)-3,4-difluorocyclopentyl)methyl)-1H-pyrazol-4-yl)pyridin-2-yl)-2-methylimidazo[1,2-a] pyridine]
87 | Cc1cn2ccc(-c3ncccc3-c3cnn(CC4C[C@@H](F)[C@H](F)C4)c3)cc2n1 [Example 5, 7-(3-(1-(((3R,4R)-3,4-difluorocyclopentyl)methyl)-1H-pyrazol-4-yl)pyridin-2-yl)-2-methylimidazo[1,2-a]pyridine]
72 | Cc1ccc(-c2nc(C)ccc2-c2cnn(CC3CCCC3)c2)cc1 [Example 6, 3-(1-(cyclopentylmethyl)-1H-pyrazol-4-yl)-6-methyl-2-(p-tolyl)pyridine]
94 | Cc1ccc(-c2cnn(CC3CCCC3)c2)c(-c2cnc3c(c2)ncn3C)n1 [Example 7, 6-(3-(1-(cyclopentylmethyl)-1H-pyrazol-4-yl)-6-methylpyridin-2-yl)-3-methyl-3H-imidazo[4,5-b]pyridine]
54 | Cc1ccc(-c2cnn(CC3CCCC3)c2)c(-c2ccc(CCCO)cc2)n1 [Example 8, 3-(4-(3-(1-(cyclopentylmethyl)-1H-pyrazol-4-yl)-6-methylpyridin-2-yl)phenyl)propan-1-ol]
50 | Cc1ccc(-c2cnn(CC3CCCC3)c2)c(-c2ccc(C(O)C(F)(F)F)cc2)n1 (centres unmarked) [Example 9, 1-(4-(3-(1-(cyclopentylmethyl)-1H-pyrazol-4-yl)-6-methylpyridin-2-yl)phenyl)-2,2,2-trifluoroethan-1-ol]
25 | COc1cnc2cc(-c3nc(C)ccc3-c3cnn(CC4(C)CCCC4)c3)ccc2c1 [Example 10, 3-methoxy-7-(6-methyl-3-(1-((1-methylcyclopentyl)methyl)-1H-pyrazol-4-yl)pyridin-2-yl)quinoline]
46 | Cc1ccc(-c2cnn(CC3CCCC3)c2)c(-c2ccc3oc(C)nc3c2)n1 [Example 11, 5-(3-(1-(cyclopentylmethyl)-1H-pyrazol-4-yl)-6-methylpyridin-2-yl)-2-methylbenzo[d]oxazole]
7 | COc1cc2ccc(-c3nc(C)ccc3-c3cnn(CC4CCCC4)c3F)cc2nn1 [Example 12, 7-(3-(1-(cyclopentylmethyl)-5-fluoro-1H-pyrazol-4-yl)-6-methylpyridin-2-yl)-3-methoxycinnoline]
